Measured values reported in US20220112149A1, “DRUG DESIGN METHOD ASSOCIATED WITH NATURAL PRODUCTS, PENTACYCLIC TRITERPENOID COMPOUND, PREPARATION METHOD AND APPLICATIONS THEREOF” (Huazhong Agricultural University, priority 2020, published 2022).
Entries after “also recorded” stand apart in the source; their conditions may differ.

What was measured:
[1] = test system: NF-κB signaling in HEK293 cells; assay: NF-κB luciferase reporter gene system; assay type: cell-based
Method: (§1) FIGS. 10A-10C show the inhibition verification effect chart of GA-02 in Example 5, where FIG. 10A: GA-02 inhibited LPS-induced ICAM-1 expression activity. The inflammatory pathway of HMEC-1 cell was activated by 1 μg/mL LPS, to determine the effect of Celastrol and GA-02 on the expression of ICAM-1 induced by LPS. FIG. 10B: The effect of GA-02 on NF-κB signaling. The NF-κB luciferase reporter plasmid was used to transfect HEK293 cells, and the effects of Celastrol and GA-02 on the NF-κB activity induced by TNF-α were determined; FIG. 10C: qRT-PCR was used to detect mRNA relative expressions of IL-1β, TNF-α, IL-6 and MCP-1.
(§2) ICAM-1 is a downstream effector molecule regulated by NF-κB signaling pathway, and NF-κB plays an important role in regulating the expression of ICAM-1 gene. Celastrol can inhibit the activation of the LPS-induced IKK/NF-κB signaling pathway. In order to validate that GA-02 functions through the IKK/NF-κB signaling pathway, we constructed an NF-κB luciferase reporter gene system to validate the inhibitory activity of Celastrol and GA-02 on the luciferase reporter gene. […] In addition, both Celastrol and GA-02 could down-regulate the mRNA transcription levels of inflammatory factors IL-1β, TNF-α, IL-6 and MCP-1 activated by LPS.

[2] = test system: mRNA of IL-1β, TNF-α, IL-6 and MCP-1; assay: qRT-PCR of inflammatory factor mRNA; assay type: cell-based; details: activated by LPS
Method: as §1, §2

[3] = test system: high-fat-induced obese mice; assay: GA-02 in high-fat-induced obese mouse model, intraperitoneal; assay type: in vivo, C57BL/6 mice
Method: Animals are fed with 60% calorie high-fat diets (purchased from Bio-medicine) for 14 consecutive weeks. […] When the blood glucose is greater than 11 mmol/L and the body weight is greater than 42 g, the administration is started. […] The injection volume is 25 μL per day. In addition, a vehicle (25 μL DMSO) and positive drug (Celastrol) control are established. […] Mice in the blank group and GA-02 treatment group underwent pathological anatomy, to observe the changes in organs before and after administration. Samples are taken to prepare pathological sections.
The models are constructed by feeding high-fat diets to C57BL/6 male mice for 14 weeks. Mice with body weight greater than 42 g and blood glucose higher than 11 mmol/L are obese model mice. Mice are grouped by blood glucose and body weight. Model mice in each group are given three doses of GA-02 (high-, medium-and low-doses, 4, 12, 20 mg/kg, 25 μL/day) by intraperitoneal injection for 14 consecutive days. Mice in the blank control group are given DMSO (25 μL/day) by intraperitoneal injection, and the food intakes and body weights are recorded every day.

[4] = test system: mildly obese mice; assay: GA-02 in mildly obese mouse model, intraperitoneal; assay type: in vivo, C57BL/6 mice
Method: The animal feeding and experiment method are as follows. […] The food intake and body weights of mice in each group are measured every day.

[5] = test system: Leptin receptor-deficient db/db mice; assay: GA-02 in db/db mice, intraperitoneal; assay type: in vivo; details: 20 mg/kg i.p., 14 days
Method: Eight-week-old male ob/ob and db/db mice are adapted to the environment under normal conditions for one week. The animals are grouped according to the body weight and blood glucose, 2 cages in each group, 5 animals in each cage. Mice are acclimatized with the vehicle for 3 days in the experimental group (25 μL DMSO/day) and are injected with drugs by intraperitoneal injection (20 mg/kg; 25 μL per injection). Mice in the control group are injected with the same volume of vehicle. The administration starts from 18:00 every day for 14 consecutive days. The body weight and food intake of mice are recorded every day.

[6] = test system: obese mice of about 45 g; assay: GA-02 intragastric administration in obese mice; assay type: in vivo; details: 40 mg/kg intragastric, two weeks
Method: (§3) The lean mice of about 25 g, mildly obese mice of weighing about 30 g, and obese mice of about 45 g are given blank vehicle and high-dose GA-02 (40 mg/kg) by intragastric administration, respectively.

[7] = test system: mildly obese mice of weighing about 30 g; assay: GA-02 intragastric administration in mildly obese mice; assay type: in vivo; details: 40 mg/kg intragastric, two weeks
Method: as §3

[8] = high-dose (20 mg/kg) i.p., second day
[9] = high-dose (20 mg/kg) i.p., third day
[10] = low-, medium- and high-dose (4, 12, 20 mg/kg) i.p.
[11] = low-, medium- and high-dose (4, 12, 20 mg/kg) i.p., 14 days

CC1(C(=O)O)CCC2(C)CCC3(C)C(=CC(=O)C4C5(C)C=C(O)C(=O)C(C)(C)C5CCC43C)C2C1 (centres unmarked) [GA-02, 3,11-dicarbonyl-1,12-diene-2-hydroxy-oleanane-30 carboxylic acid]
inhibition of NF-κB reporter fluorescence compared with Celastrol ([1]; 10 μM): equivalent to that of 1 μM Celastrol
inhibition of the fluorescence intensity, concentration dependence ([1]; different concentrations): concentration-dependent manner
mRNA transcription levels of inflammatory factors IL-1β, TNF-α, IL-6 and MCP-1 [2]: down-regulate
accumulated fats in the visceral tissues ([3]; after administration for two weeks, dissection): completely dissipated
average daily food intake decreased compared to the vehicle control group ([3]; first week, high dose 20 mg/kg i.p.): 63.2%
average daily food intake ([3]; first week, high dose 20 mg/kg i.p., vehicle 2.31±0.18 g): 0.85 ± 0.23 g
average daily food intake decreased compared to the vehicle control group ([3]; first week, low dose 4 mg/kg i.p.): 20.8%
average daily food intake ([3]; first week, low dose 4 mg/kg i.p., vehicle 2.31±0.18 g): 1.83 ± 0.28 g
average daily food intake decreased compared to the vehicle control group ([3]; first week, medium dose 12 mg/kg i.p.): 27.3%
average daily food intake ([3]; first week, medium dose 12 mg/kg i.p., vehicle 2.31±0.18 g): 1.68 ± 0.35 g
body weight reduced by ([3]; high dose 20 mg/kg i.p., 14 days): 26.42±0.73%
body weight two weeks after administration ([3]; high dose 20 mg/kg i.p., 14 days, from 42.14±1.37 g): 30.07 ± 1.23 g
lipid droplets in the liver (oil red O and H&E staining) ([3]; high-dose (20 mg/kg) i.p.): completely disappeared
liver function indexes AST and ALT vs vehicle control group ([3]; high-dose (20 mg/kg) i.p.): significantly lower
average daily food intake ([3]; high-dose (20 mg/kg) i.p., first day of administration, day 0: 2.0±0.18 g): 0.60 ± 0.02 g
body weight ([3]; high-dose (20 mg/kg) i.p., first day, from 42.09±0.42 g): 40.98 ± 0.57 g
average daily food intake [3, 8]: 0.47 ± 0.16 g
body weight [3, 8]: 39.94 ± 0.62 g
average daily food intake [3, 9]: 0.39 ± 0.11 g
body weight [3, 9]: 39.23 ± 0.71 g
blood glucose tolerance (GTT) and insulin tolerance (ITT) ([3]; high-dose administration group): significantly improved
effect on suppressing appetite and reducing body weight (summary) ([3]; intraperitoneal injection, obese mice): strong effect
body weight reduced by ([3]; low dose 4 mg/kg i.p., 14 days): 9.88±2.37%
body weight two weeks after administration ([3]; low dose 4 mg/kg i.p., 14 days, from 42.50±1.71 g): 38.46 ± 0.95 g
fat contents vs obese model mice (NMR body fat quantitative analysis) [3, 10]: significantly lower
lean body masses (NMR body fat quantitative analysis) [3, 10]: no significant change
fasting blood glucose level [3, 11]: reduce to a normal level; also recorded: return to the normal levels
weights of liver and epididymal fat compared to the vehicle control group [3, 11]: decrease in a dose-dependent manner
body weight reduced by ([3]; medium dose 12 mg/kg i.p., 14 days): 13.15±2.73%
body weight two weeks after administration ([3]; medium dose 12 mg/kg i.p., 14 days, from 41.41.±1.17 g): 35.45 ± 1.15 g
average daily food intake decreased compared to the vehicle control group ([3]; second mention of 'first week', high dose 20 mg/kg i.p.): 68.8%
average daily food intake ([3]; second mention of 'first week', high dose 20 mg/kg i.p., vehicle 2.47±0.13 g): 0.70 ± 0.16 g
average daily food intake decreased compared to the vehicle control group ([3]; second mention of 'first week', low dose 4 mg/kg i.p.): 37.2%
average daily food intake ([3]; second mention of 'first week', low dose 4 mg/kg i.p., vehicle 2.47±0.13 g): 1.55 ± 0.12 g
average daily food intake decreased compared to the vehicle control group ([3]; second mention of 'first week', medium dose 12 mg/kg i.p.): 45.3%
average daily food intake ([3]; second mention of 'first week', medium dose 12 mg/kg i.p., vehicle 2.47±0.13 g): 1.35 ± 0.18 g
food intake and body weight vs vehicle control group ([4]; high-dose i.p., mild obesity group, body weight of about 28 g): significantly lower
effect on suppressing appetite and reducing body weight (summary) ([4]; intraperitoneal injection, mildly obese mice): significant effect
body weight increase [5]: 15%
food intakes compared with the vehicle control group [5]: do not change significantly
average daily food intake reduced by [6]: 50%
body weight reduced by [6]: 21%
average daily food intake reduced by [7]: 30%
body weight reduced by [7]: 16%
